# Measured values from US9642889B2, “Macrocyclic inhibitors of Flaviviridae viruses” (Selcia Limited, priority 2012, dated 2017).
# Read-outs that look alike come from different tables or passages of the source.
# Key:
# [1] = rcm bond; 22-membered ring; Hoveyda-Grubbs II; 1,2-dichloroethane; 3.01 mM; 80.0 °C; 2 steps
# cyclophilin A = cyclophilin A (Homo sapiens, UniProt P62937); assay: Cyclophilin A TR-FRET competitive binding assay; conditions: competition with CsA-Cy5 for His-tagged CypA, two-hour incubation
# Chain of cyclophilin A (P62937 whole entry, species assumed): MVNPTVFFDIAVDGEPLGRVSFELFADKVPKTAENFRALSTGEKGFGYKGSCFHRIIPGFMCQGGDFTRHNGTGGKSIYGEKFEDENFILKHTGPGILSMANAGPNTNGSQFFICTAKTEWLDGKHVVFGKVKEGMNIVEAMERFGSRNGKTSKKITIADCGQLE
# Description: Cyclophilin A TR-FRET Competitive Binding Assay
# Inhibitor potency was measured using a competitive binding assay with a time-resolved fluorescence resonance energy transfer (TR-FRET) readout. […] An IC50 value was calculated using a four-parameter logistic fit.
# [2] = rcm bond; 22-membered ring; Hoveyda-Grubbs II; 1,2-dichloroethane; 80.0 °C
# [3] = system: Huh-7 HCV replicon cells (1b replicon); assay: anti-HCV activity in Huh-7 cell line harboring a HCV replicon (luciferase readout); assay type: cell-based; conditions: Hepatitis C virus; for EC50: Huh-7, 72 h, inhibition of viral replication, Huh-7 HCV replicon cells, 3 days, read-out: EC50; for inhibition at 1 µM: Huh-7, read-out: Replicon 1b % inhibition at 1 μM, 1b replicon, 1 μM compound
smiles,measurement,setting,value
CC(C)[C@@H]1OC(=O)[C@H](C)C=Cc2cc3cc(ccc3cn2)[C@@H](C)NC(=O)[C@@H]2CCCN(N2)C(=O)[C@H](C)NC1=O,"ring closure, yield of all isomers","from C=Cc1cc2cc([C@@H](C)NC(=O)[C@@H]3CCCN(C(=O)[C@H](C)NC(=O)[C@@H](OC(=O)[C@H](C)/C=C/C)C(C)C)N3)ccc2cn1, rcm bond, Hoveyda-Grubbs 2nd generation, toluene, 2.99 mM, 125.0 °C, 5.75 h",1%
CC(C)[C@@H]1OC(=O)[C@H](C)[C@H](O[Si](C)(C)C(C)(C)C)CC/C=C/c2cccc(c2)[C@@H](C)NC(=O)[C@@H]2CCCN(N2)C(=O)[C@H](C)NC1=O,"ring closure, isolated yield",[1],16%
same,"ring closure, yield of all isomers","from C=CCC[C@@H](O[Si](C)(C)C(C)(C)C)[C@@H](C)C(=O)O[C@H](C(=O)N[C@@H](C)C(=O)N1CCC[C@@H](C(=O)N[C@H](C)c2cccc(C=C)c2)N1)C(C)C, rcm bond, Hoveyda-Grubbs 2nd generation catalyst, 1,2-dichloroethane, 3.01 mM, 80.0 °C, 2.0 h, 2 steps",16%
CO[C@@H]1C=Cc2cc3cc(ccc3cn2)[C@@H](C)NC(=O)[C@@H]2CCCN(N2)C(=O)[C@H](C)NC(=O)[C@H](C(C)C)OC(=O)[C@@H]1C,"ring closure, yield of all isomers","from C=Cc1cc2cc([C@@H](C)NC(=O)[C@@H]3CCCN(C(=O)[C@H](C)NC(=O)[C@@H](OC(=O)[C@H](C)[C@@H](/C=C/C)OC)C(C)C)N3)ccc2cn1, rcm bond, Hoveyda-Grubbs 2nd generation, toluene, 2.98 mM, 125.0 °C, 6.0 h",1%
CO[C@H]1CC[C@@]2(/C=C/c3ccc4ccc(nc4c3)[C@@H](C)NC(=O)[C@@H]3CCCN(N3)C(=O)[C@H](C)NC(=O)[C@H](C(C)C)OC2=O)CC1,"ring closure, yield of all isomers","from CO[C@H]1CC[C@](/C=C/c2ccc3ccc([C@@H](C)N)nc3c2)(C(=O)O[C@H](C(=O)N[C@@H](C)C(=O)N2CCC[C@@H](C(=O)O)N2)C(C)C)CC1, amide bond, HATU/DIPEA, DCM, 4 steps",6.2%
"CC(C)[C@@H]1OC(=O)CCCC/C=C/c2cccc(c2)[C@@H](C)NC(=O)[C@@H]2CCCN(N2)C(=O)[C@H](C)NC1=O [Compound 8, (E)-(2R,5S,11S,14S)-14-Isopropyl-2,11-dimethyl-15-oxa-3,9,12,28-tetraaza-tricyclo[21.3.1.1*5,9*]octacosa-1 (27),21,23,25-tetraene-4,10,13,16-tetraone]",IC50,cyclophilin A,< 100 nM
same,"ring closure, yield after HPLC",[2],15%
same,EC50,[3],< 1000 nM
same,inhibition at 1 µM,[3],95%
same,"ring closure, yield of all isomers","from C=CCCCCC(=O)O[C@H](C(=O)N[C@@H](C)C(=O)N1CCC[C@@H](C(=O)N[C@H](C)c2cccc(C=C)c2)N1)C(C)C, rcm bond, Hoveyda-Grubbs 2nd generation catalyst, 1,2-dichloroethane, 80.0 °C, 2.3 h",15%
"CC(C)[C@H]1C(=O)N[C@@H](C)C(=O)N2CCC[C@H](N2)C(=O)N[C@H](C)c2cccc(c2)/C=C/CCCCC(=O)N1C [Compound 17, (E)-(2R,5S,11 S,14S)-14-Isopropyl-2,11,15-trimethyl-3,9,12,15,28-pentaaza-tricyclo[21.3.1.1*5,9*]octacosa-1 (27),21,23,25-tetraene-4,10,13,16-tetraone]",IC50,cyclophilin A,101 to 1000 nM
same,EC50,[3],1100 to 10000 nM
same,inhibition at 1 µM,[3],39%
same,"ring closure, yield of all isomers","from C=CCCCCC(=O)N(C)[C@H](C(=O)N[C@@H](C)C(=O)N1CCC[C@@H](C(=O)N[C@H](C)c2cccc(C=C)c2)N1)C(C)C, rcm bond, Hoveyda-Grubbs 2nd generation catalyst, 1,2-dichloroethane, 3.33 mM, 80.0 °C, 3.0 h",43%
